Reference: the supplement of paper PMC6045584
± gives the standard deviation of the averaged measurements.

How the values were obtained:
[1] = compound: Nc1nc2[nH]cnc2c(=S)[nH]1 [TIOGUANINE]; experiment: surviving fraction relative to DMSO-only wells; higher = less growth inhibition; conditions: exposure time: 5 days
Outline: (§1)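 Viability values are CellTiter-Glo luminescence readings, given as surviving fraction against the median of DMSO-only wells. The readings were taken after 10 minutes at room temperature, following five days of continuous exposure to inhibitors at 0.5, 1, 5, 10, 50, 100, 500 and 1000 nM that began 24 hours after log-phase tumour cell lines were seeded at 250–500 cells per well in 384-well plates. Every line was screened three times and kept only if replicate Pearson r >0.7 and median Z' >0.3.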

[2] = compound: CN(C)C/C=C/C(=O)Nc1cc2c(Nc3ccc(F)c(Cl)c3)ncnc2cc1O[C@H]1CCOC1 [AFATINIB]; experiment: as above; conditions: exposure time: 5 days
Outline: as §1

Row | Test System | surviving fraction ([1]; 0.5 nM) | surviving fraction ([1]; 1 nM) | surviving fraction ([1]; 5 nM) | surviving fraction ([1]; 10 nM) | surviving fraction ([1]; 50 nM) | surviving fraction ([1]; 100 nM) | surviving fraction ([1]; 500 nM) | surviving fraction ([1]; 1000 nM) | surviving fraction ([2]; 0.5 nM) | surviving fraction ([2]; 1 nM) | surviving fraction ([2]; 5 nM) | surviving fraction ([2]; 10 nM) | surviving fraction ([2]; 50 nM) | surviving fraction ([2]; 100 nM) | surviving fraction ([2]; 500 nM) | surviving fraction ([2]; 1000 nM)
1 | NOS1 BONE | 1.12 ± 0.037 | 1.14 ± 0.028 | 1.15 ± 0.093 | 1.17 ± 0.075 | 1.23 ± 0.1 | 1.19 ± 0.058 | 1.06 ± 0.099 | 1.05 ± 0.065 | 0.993 ± 0.2 | 0.997 ± 0.014 | 1.05 ± 0.066 | 0.947 ± 0.04 | 1.13 ± 0.11 | 0.983 ± 0.1 | 0.238 ± 0.019 | 0.096 ± 0.0027
2 | CASKI CERVIX | 0.902 ± 0.091 | 0.902 ± 0.056 | 0.934 ± 0.029 | 0.952 ± 0.032 | 0.9923 ± 0.0092 | 1.01 ± 0.014 | 0.962 ± 0.037 | 0.839 ± 0.072 | 0.715 ± 0.055 | 0.522 ± 0.028 | 0.409 ± 0.041 | 0.274 ± 0.015 | 0.259 ± 0.0076 | 0.223 ± 0.006 | 0.049 ± 0.007 | 0.02 ± 0.0017
3 | HELA CERVIX | 0.998 ± 0.074 | 1.03 ± 0.053 | 0.994 ± 0.015 | 0.997 ± 0.055 | 1.06 ± 0.024 | 1.14 ± 0.019 | 1.14 ± 0.059 | 1.21 ± 0.056 | 1.08 ± 0.041 | 1.09 ± 0.049 | 1.06 ± 0.082 | 1.02 ± 0.022 | 1.19 ± 0.028 | 1.2 ± 0.018 | 1.22 ± 0.075 | 1.1 ± 0.045
4 | NY BONE | 0.936 ± 0.013 | 0.955 ± 0.017 | 1.01 ± 0.022 | 0.972 ± 0.015 | 1.02 ± 0.049 | 1.01 ± 0.029 | 0.946 ± 0.025 | 0.902 ± 0.039 | 0.991 ± 0.051 | 0.983 ± 0.013 | 1.02 ± 0.062 | 1.038 ± 0.008 | 1.03 ± 0.053 | 0.996 ± 0.017 | 0.683 ± 0.029 | 0.392 ± 0.017
5 | LNCAP PROSTATE | 0.933 ± 0.078 | 0.912 ± 0.028 | 0.955 ± 0.17 | 0.964 ± 0.09 | 1.07 ± 0.11 | 0.976 ± 0.085 | 0.971 ± 0.06 | 0.977 ± 0.07 | 1.03 ± 0.093 | 0.998 ± 0.083 | 0.995 ± 0.062 | 0.922 ± 0.073 | 0.892 ± 0.11 | 1.01 ± 0.069 | 0.854 ± 0.1 | 0.649 ± 0.051
